Data taken from publication PMC9516332 (Frontiers in Oncology, 2022).
Like-named read-outs stand apart in the source and are kept apart here.

Experiments:
[1] = target: panel of 255 wild-type kinases (Homo sapiens, UniProt P45983); assay: Kinase panel profiling at 1 µmol/L (MSA or IMAP), percentage inhibition; type: biochemical; settings: kinase JNK1; 1 µmol/L single concentration; read-out: %-inhibition at 1 µmol/L, JNK1
[2] = target: T1, panel of 255 wild-type kinases (Homo sapiens, UniProt Q8IW41); assay: as above; type: biochemical; settings: MAPKAPK5; 1 µmol/L single concentration; read-out: %-inhibition, MAPKAPK5
T1 sequence (Q8IW41 1-473): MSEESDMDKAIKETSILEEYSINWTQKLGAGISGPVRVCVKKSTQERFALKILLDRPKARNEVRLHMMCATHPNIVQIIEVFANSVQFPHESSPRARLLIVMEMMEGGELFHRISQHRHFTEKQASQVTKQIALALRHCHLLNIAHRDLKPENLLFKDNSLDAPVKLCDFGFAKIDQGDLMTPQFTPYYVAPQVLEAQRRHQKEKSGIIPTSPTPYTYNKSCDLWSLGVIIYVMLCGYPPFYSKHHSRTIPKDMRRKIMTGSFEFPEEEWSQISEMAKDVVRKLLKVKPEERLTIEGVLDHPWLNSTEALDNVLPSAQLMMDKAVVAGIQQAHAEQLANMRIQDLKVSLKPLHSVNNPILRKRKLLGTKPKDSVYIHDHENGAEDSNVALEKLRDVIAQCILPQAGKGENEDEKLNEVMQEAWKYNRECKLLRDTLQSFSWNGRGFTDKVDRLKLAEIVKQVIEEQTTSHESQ

AP-1060 (ETV6-NTRK3) = assay: Cell viability assay; settings: read-out: IC50 in cell proliferation assay
134 cancer cell lines = assay: Cell viability assay (ATPlite, 72 hours), IC50 on cancer cell line panel

inhibition at 1 µM [1]: -2.59%
inhibition at 1 µM [2]: -4.73%
IC50 (134 cancer cell lines; HEC-6, read-out: IC50 in cell proliferation assay, HEC-6 cell line (EGFR p.A289V)): > 31600 nM
IC50 (134 cancer cell lines; Homo sapiens, 769-P, read-out: IC50 in cell proliferation assay, cell line 769-P): 229 nM
IC50 (134 cancer cell lines; Homo sapiens, 786-0, read-out: IC50 in cell proliferation assay, cell line 786-O): > 31600 nM
IC50 (134 cancer cell lines; Homo sapiens, A 172, read-out: IC50 in cell proliferation assay, cell line A-172): 20000 nM
IC50 (134 cancer cell lines; Homo sapiens, A204, read-out: IC50 in cell proliferation assay, cell line A-204): > 31600 nM
IC50 (134 cancer cell lines; Homo sapiens, A498, read-out: IC50 in cell proliferation assay, cell line A-498): 53 nM
IC50 (134 cancer cell lines; Homo sapiens, A549, read-out: IC50 in cell proliferation assay, cell line A-549): 92 nM
IC50 (134 cancer cell lines; Homo sapiens, A704, read-out: IC50 in cell proliferation assay, cell line A-704): > 31600 nM
IC50 (134 cancer cell lines; Homo sapiens, A-375, read-out: IC50 in cell proliferation assay, cell line A-375 (BRAF p.V600E)): 86 nM
IC50 (134 cancer cell lines; Homo sapiens, A-427, read-out: IC50 in cell proliferation assay, cell line A-427): 625 nM
IC50 (134 cancer cell lines; Homo sapiens, ACHN, read-out: IC50 in cell proliferation assay, cell line ACHN): 32 nM
IC50 (134 cancer cell lines; Homo sapiens, AN3-CA, read-out: IC50 in cell proliferation assay, cell line AN3-CA (FGFR2 p.N549K)): 12800 nM
IC50 (134 cancer cell lines; Homo sapiens, ASPC1, read-out: IC50 in cell proliferation assay, cell line AsPC-1): 116 nM
IC50 (134 cancer cell lines; Homo sapiens, AU565, read-out: IC50 in cell proliferation assay, cell line AU565 (ERBB2 amplification)): > 31600 nM
IC50 (134 cancer cell lines; Homo sapiens, BT-20, read-out: IC50 in cell proliferation assay, cell line BT-20): > 31600 nM
IC50 (134 cancer cell lines; Homo sapiens, BT-474, read-out: IC50 in cell proliferation assay, cell line BT-474 (ERBB2 amplification)): > 31600 nM
IC50 (134 cancer cell lines; Homo sapiens, BT-549, read-out: IC50 in cell proliferation assay, cell line BT-549): 8680 nM
IC50 (134 cancer cell lines; Homo sapiens, BXPC-3, read-out: IC50 in cell proliferation assay, cell line BxPC-3): 24 nM
IC50 (134 cancer cell lines; Homo sapiens, C-33-A, read-out: IC50 in cell proliferation assay, cell line C-33 A): 72 nM
IC50 (134 cancer cell lines; Homo sapiens, CAL-27, read-out: IC50 in cell proliferation assay, cell line CAL-27): 117 nM
IC50 (134 cancer cell lines; Homo sapiens, CCF-STTG1, read-out: IC50 in cell proliferation assay, cell line CCF-STTG1): > 31600 nM
IC50 (134 cancer cell lines; Homo sapiens, CCRF-CEM, read-out: IC50 in cell proliferation assay, cell line CCRF-CEM): > 31600 nM
IC50 (134 cancer cell lines; Homo sapiens, COLO 205, read-out: IC50 in cell proliferation assay, cell line COLO 205 (BRAF p.V600E)): 31 nM
IC50 (134 cancer cell lines; Homo sapiens, COLO-829, read-out: IC50 in cell proliferation assay, cell line COLO 829 (BRAF p.V600E)): 125 nM
IC50 (134 cancer cell lines; Homo sapiens, DLD-1, read-out: IC50 in cell proliferation assay, cell line DLD-1): 522 nM
IC50 (134 cancer cell lines; Homo sapiens, DU-4475, read-out: IC50 in cell proliferation assay, cell line DU4475 (BRAF p.V600E)): 38 nM
IC50 (134 cancer cell lines; Homo sapiens, Daoy, read-out: IC50 in cell proliferation assay, cell line Daoy): 3980 nM
IC50 (134 cancer cell lines; Homo sapiens, DoTc2-4510, read-out: IC50 in cell proliferation assay, cell line DoTc2 4510): 113 nM
IC50 (134 cancer cell lines; Homo sapiens, EOL1, read-out: IC50 in cell proliferation assay, cell line EoL-1 (FIP1L1-PDGFRA)): 82 nM
IC50 (134 cancer cell lines; Homo sapiens, FaDu, read-out: IC50 in cell proliferation assay, cell line FaDu): 47 nM
IC50 (134 cancer cell lines; Homo sapiens, G-361, read-out: IC50 in cell proliferation assay, cell line G-361 (BRAF p.V600E)): 144 nM
IC50 (134 cancer cell lines; Homo sapiens, HCC827, read-out: IC50 in cell proliferation assay, cell line HCC827 (EGFR exon19del)): 268 nM
IC50 (134 cancer cell lines; Homo sapiens, HCC4006, read-out: IC50 in cell proliferation assay, cell line HCC4006 (EGFR exon19del)): 26600 nM
IC50 (134 cancer cell lines; Homo sapiens, HCT-15, read-out: IC50 in cell proliferation assay, cell line HCT 15): 1070 nM
IC50 (134 cancer cell lines; Homo sapiens, HCT-116, read-out: IC50 in cell proliferation assay, cell line HCT 116): 525 nM
IC50 (134 cancer cell lines; Homo sapiens, HEC-1, read-out: IC50 in cell proliferation assay, HEC-1 cell line): > 31600 nM
IC50 (134 cancer cell lines; Homo sapiens, HEC-1B, read-out: IC50 in cell proliferation assay, HEC-1-B cell line (EGFR p.A864V)): 12 nM
IC50 (134 cancer cell lines; Homo sapiens, HL-60, read-out: IC50 in cell proliferation assay, HL-60 cell line): 5 nM
IC50 (134 cancer cell lines; Homo sapiens, HT, read-out: IC50 in cell proliferation assay, HT cell line): > 31600 nM
IC50 (134 cancer cell lines; Homo sapiens, HT-1080, read-out: IC50 in cell proliferation assay, HT-1080 cell line): 27 nM
IC50 (134 cancer cell lines; Homo sapiens, Hs746T, read-out: IC50 in cell proliferation assay, Hs 746.T cell line (MET exon14skip + amplification)): 12500 nM
IC50 (134 cancer cell lines; Homo sapiens, Hs-578T, read-out: IC50 in cell proliferation assay, Hs 578T cell line): 143 nM
IC50 (134 cancer cell lines; Homo sapiens, HuTu80, read-out: IC50 in cell proliferation assay, HuTu 80 cell line): 3320 nM
IC50 (134 cancer cell lines; Homo sapiens, J82, read-out: IC50 in cell proliferation assay, J82 cell line): 200 nM
IC50 (134 cancer cell lines; Homo sapiens, Jurkat E6.1, read-out: IC50 in cell proliferation assay, Jurkat E6.1 cell line): > 31600 nM
IC50 (134 cancer cell lines; Homo sapiens, K562, read-out: IC50 in cell proliferation assay, K-562 cell line): 383 nM
IC50 (134 cancer cell lines; Homo sapiens, KATO III, read-out: IC50 in cell proliferation assay, KATO III cell line (FGFR2 amplification)): 5400 nM
IC50 (134 cancer cell lines; Homo sapiens, KG-1, read-out: IC50 in cell proliferation assay, KG-1 cell line (FGFR1OP2-FGFR1)): 404 nM
IC50 (134 cancer cell lines; Homo sapiens, KLE, read-out: IC50 in cell proliferation assay, KLE cell line): > 31600 nM
IC50 (134 cancer cell lines; Homo sapiens, KMS-11, read-out: IC50 in cell proliferation assay, KMS-11 cell line (FGFR3 p.Y373C)): > 31600 nM
IC50 (134 cancer cell lines; Homo sapiens, KU812, read-out: IC50 in cell proliferation assay, Ku812 cell line): 30 nM
IC50 (134 cancer cell lines; Homo sapiens, Kasumi 1, read-out: IC50 in cell proliferation assay, Kasumi-1 cell line (KIT p.N822K)): 192 nM
IC50 (134 cancer cell lines; Homo sapiens, LC-2-ad, read-out: IC50 in cell proliferation assay, LC-2/ad cell line (CCDC6-RET)): 84 nM
IC50 (134 cancer cell lines; Homo sapiens, LNCaP-Clone-FGC, read-out: IC50 in cell proliferation assay, LNCaP clone FGC cell line): > 31600 nM
IC50 (134 cancer cell lines; Homo sapiens, LS174T, read-out: IC50 in cell proliferation assay, LS174T cell line): 70 nM
IC50 (134 cancer cell lines; Homo sapiens, LS-411N, read-out: IC50 in cell proliferation assay, LS411N cell line (BRAF p.V600E)): 61 nM
IC50 (134 cancer cell lines; Homo sapiens, LoVo, read-out: IC50 in cell proliferation assay, LoVo cell line): 23 nM
IC50 (134 cancer cell lines; Homo sapiens, MCF7, read-out: IC50 in cell proliferation assay, MCF-7 cell line): > 31600 nM
IC50 (134 cancer cell lines; Homo sapiens, MDA-MB-231, read-out: IC50 in cell proliferation assay, MDA-MB-231 cell line): 1010 nM
IC50 (134 cancer cell lines; Homo sapiens, MDA-MB-453, read-out: IC50 in cell proliferation assay, MDA-MB-453 cell line): > 31600 nM
IC50 (134 cancer cell lines; Homo sapiens, MDA-MB-468, read-out: IC50 in cell proliferation assay, MDA-MB-468 cell line): 64 nM
IC50 (134 cancer cell lines; Homo sapiens, MG-63, read-out: IC50 in cell proliferation assay, MG-63 cell line): 2220 nM
IC50 (134 cancer cell lines; Homo sapiens, MIA PaCa-2, read-out: IC50 in cell proliferation assay, MIA PaCa-2 cell line): 140 nM
IC50 (134 cancer cell lines; Homo sapiens, MKN-45, read-out: IC50 in cell proliferation assay, MKN45 cell line (MET amplification)): 1150 nM
SMILES: Cn1cnc2c(F)c(Nc3ccc(Br)cc3F)c(C(=O)NOCCO)cc21 [binimetinib]
IC50 (AP-1060 (ETV6-NTRK3)): 18800 nM
